Assays:
U937 cells = assay: Counter screen: U937 cell viability without TSQ cocktail (off-target effect); parameters: species or system human; details: Homo sapiens, U-937, compound without TSQ cocktail, read-out: Off-target effect (IC50 cell-based assay)
Outline: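 U937 cells (20,000/well) exposed to compound (10-point 1:3 titration from 36 μM, 0.3% DMSO) without TSQ cocktail for 48 h at 37 °C/5% CO2. Viability read as ATP by CellTiter-Glo luminescence; IC50 from 4-parameter logistic fit.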

[1] = system: U937 human histiocytic leukemia cell line; assay: Inhibition of TSQ induced necroptosis in U937 cells (CellTitre-Glo); details: Homo sapiens, U-937, TSQ cocktail (TNF, Smac mimetic, Q-VD-OPh), 48 hours, read-out: Inhibition of TSQ-induced necroptosis (IC50 cell-based assay)
Outline: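 U937 cells (20000/well) treated with compound (10-point, 1:3 from 36 μM, 0.3% DMSO) plus TSQ cocktail (hTNF-Fc 100 ng/ml, Smac mimetic 500 nM, Q-VD-OPh 10 μM), 48 h at 37 °C. Viability by CellTiter-Glo luminescence; IC50 from 4-parameter logistic fit. Counter screen: same cells without TSQ.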

Compound | IC50 (U937 cells) | IC50 [1]
C[C@H](Oc1cc(-c2nn(C)c3c(-c4cnn(C5CCN(C)C(C)(C)C5)c4)cnc(N)c23)ccc1NS(=O)(=O)C(F)F)c1ccc(F)cc1 (single isomer, unassigned) [Compound 113] | > 10000 nM | < 10 nM
C[C@H](Oc1cc(-c2nn(C)c3c(-c4cnn(C5CCN(C)C(C)(C)C5)c4)cnc(N)c23)ccc1NS(=O)(=O)C(F)F)c1ccc(F)cc1 (single isomer, unassigned) [Compound 154, N-(4-(4-amino-1-methyl-7-(1-((R*)-1,2,2-trimethylpiperidin-4-yl)-1H-pyrazol-4-yl)-1H-pyrazolo[4,3-c]pyridin-3-yl)-2-((S)-1-(4-fluorophenyl)ethoxy)phenyl)-1,1-difluoromethanesulfonamide] | > 10000 nM | < 10 nM
C[C@H](Oc1cc(-c2nn(C)c3c(-c4cnn(C5CCN(C)C6(CC6)C5)c4)cnc(N)c23)ccc1NS(=O)(=O)C(F)F)c1ccc(F)cc1 (single isomer, unassigned) [Compound 170, N-(4-(4-amino-1-methyl-7-(1-((S*)-4-methyl-4-azaspiro[2.5]octan-7-yl)-1H-pyrazol-4-yl)-1H-pyrazolo[4,3-c]pyridin-3-yl)-2-((S)-1-(4-fluorophenyl)ethoxy)phenyl)-1,1-difluoromethanesulfonamide] | > 10000 nM | 10 to 1000 nM
COCCn1cc(-c2cnc(N)c3c(-c4ccc(NS(=O)(=O)C(F)F)c(O[C@@H](C)c5ccc(F)cc5)c4)nn(C)c23)cn1 [Compound 29, (S)-N-(4-(4-amino-7-(1-(2-methoxyethyl)-1H-pyrazol-4-yl)-1-methyl-1H-pyrazolo[4,3-c]pyridin-3-yl)-2-(1-(4-fluorophenyl)ethoxy)phenyl)-1,1-difluoromethanesulfonamide] | > 10000 nM | < 10 nM
C[C@H](Oc1cc(-c2nn(C)c3c(-c4cnn(C5CCCC5)c4)cnc(N)c23)ccc1NS(=O)(=O)C(F)F)c1ccc(F)cc1 [Compound 30, (S)-N-(4-(4-amino-7-(1-cyclopentyl-1H-pyrazol-4-yl)-1-methyl-1H-pyrazolo[4,3-c]pyridin-3-yl)-2-(1-(4-fluorophenyl)ethoxy)phenyl)-1,1-difluoromethanesulfonamide] | > 10000 nM | < 10 nM
C[C@H](Oc1cc(-c2nn(C)c3c(-c4cnn(C5CCN(C)CC5)c4)cnc(N)c23)ccc1NS(=O)(=O)C(F)F)c1ccc(F)cc1 [Compound 46, (S)-N-(4-(4-amino-1-methyl-7-(1-(1-methylpiperidin-4-yl)-1H-pyrazol-4-yl)-1H-pyrazolo[4,3-c]pyridin-3-yl)-2-(1-(4-fluorophenyl)ethoxy)phenyl)-1,1-difluoromethanesulfonamide] | 1000 to 10000 nM | 10 to 1000 nM
C[C@H](Oc1cc(-c2nn(C)c3c(C#CC4CCNCC4)cnc(N)c23)ccc1NS(=O)(=O)C(F)F)c1ccc(F)cc1 [Compound 79, (S)—N-(4-(4-amino-1-methyl-7-(piperidin-4-ylethynyl)-1H-pyrazolo[4,3-c]pyridin-3-yl)-2-(1-(4-fluorophenyl)ethoxy)phenyl)-1,1-difluoromethanesulfonamide] | > 10000 nM | 10 to 1000 nM
C[C@H](Oc1cc(-c2nn(C)c3c(C#CC4CCN(C)CC4)cnc(N)c23)ccc1NS(=O)(=O)C(F)F)c1ccc(F)cc1 [Compound 80, (S)—N-(4-(4-amino-1-methyl-7-((1-methylpiperidin-4-yl)ethynyl)-1H-pyrazolo[4,3-c]pyridin-3-yl)-2-(1-(4-fluorophenyl)ethoxy)phenyl)-1,1-difluoromethanesulfonamide] | > 10000 nM | 10 to 1000 nM
CC(C)N(C)C(=O)C(C)n1cc(-c2cnc(N)c3c(-c4ccc(NS(=O)(=O)C(F)F)c(O[C@@H](C)c5ccc(F)cc5)c4)nn(C)c23)cn1 (stereo partly drawn) [Compound 81, 2-(4-(4-amino-3-(4-((difluoromethyl)sulfonamido)-3-((S)-1-(4-fluorophenyl)ethoxy)phenyl)-1-methyl-1H-pyrazolo[4,3-c]pyridin-7-yl)-1H-pyrazol-1-yl)-N-isopropyl-N-methylpropanamide] | > 10000 nM | < 10 nM
